The test system of assay [1] is senescent fibroblasts (after 38 cell passages). Kind of assay: DNA comet assay. It is filed as cell-based, human. The conditions noted are these: 4 weeks, vs control, p<0.01, FIG. 12. Here is the method:
The degrees of restoration of DNA damage in senescent cells by the Rho-kinase inhibitors were identified by a DNA comet assay. This method is performed by detecting DNA fractions cleaved by ultraviolet (UV) irradiation. This method is based on gel electrophoresis. During gel electrophoresis, damaged DNA migrates farther than normal DNA forming a tail like a comet-tail. Then, a slide was stained with SYBR Green, and the length of a tail of a DNA fraction was measured using a fluorescence microscope to identify the degree of DNA damage.
FIG. 12 is a graph displaying degrees of DNA damage in fibroblasts (after 38 cell passages) cultured in the presence of Rho-kinase inhibitors Y-27632 (5 μM), Fasudil (5 μM), and SR3677 (0.5 μM) measured by a DNA comet assay indicating the degree of DNA damage. In FIG. 12, senescent cells (after 38 cell passages) were cultured in culture media supplemented with 5 μM of Y-27632, 5 μM of FASUDIL, and 0.5 μM of SR3677 for 4 weeks in a 5% CO2 incubator at 37° C. The culture media were changed at every 4 days with new culture media supplemented with 5 μM of Y-27632, 5 μM of FASUDIL, and 0.5 μM of SR3677. Also, negative control groups were prepared in the same manner as described above, except that one negative control group was prepared with no treatment and another was treated with 0.05 (v/v) % of DMSO. Cells having undergone 17 passages and having a cell doubling time of 4 to 5 days were used as young cells. […] Thus, it was confirmed that the degree of DNA damage increases in senescent cells. In the Comet assay, the Tail Moment is defined as multiplication of a length of the tail by a total DNA fraction contained in the tail. That is, the Tail Moment is a length of the tail migrated during gel electrophoresis. As the length of the tail decreases, the degree of DNA damage decreases. […] In FIG. 12, ** indicates statistically significant (p<0.01). In FIG. 12, the “Fibroblast p17” and “Fibroblast p38” refer to fibroblasts that were subcultured for 17 passages and fibroblasts subcultured for 38 passages, respectively.

Assay [2] deals with senescent myoblasts (passage 11). Kind of assay: microscopic observation of cell number and shape. It is filed as cell-based, Human. The conditions noted are these: 4 weeks, FIG. 13; for numbers of cells: vs DMSO. The method, then:
(§1) Myoblast cell lines (Human Skeletal Muscle Myoblasts, Lonza CC-2580 LOT:0000387550) were cultured in SkBM™-2 Basal Media (Lonza CC-3246) including an SkGM™-2 SingleQuots™ Kit (Lonza CC-3244) on plates coated with Collagen Type I (Greiner Bio One, 658950) in a 5% CO2 incubator at 37° C. Subculture was initiated when the cells were approximately 85% confluent in plates. Early subcultures were performed at a split ratio of 1:4, and later subcultures were performed at a split ratio of 1:2. When cell doubling time was 14 days, the cells were regarded as senescent myoblasts (cell passages 10 to 12).
(§2) Senescent cells were seeded on each well of a 6-well plate coated with Collagen Type I (Greiner Bio One, 657950) in a concentration of 2,000 cells/well. Senescent myoblasts (passage 11) were cultured in the presence of 5 μM of Y-27632, 5 μM of FASUDIL, and 0.5 μM of SR3677 for 4 weeks in a 5% CO2 incubator at 37° C. The culture media were changed at every 4 days with new culture media supplemented with 5 μM of Y-27632, 5 μM of FASUDIL, and 0.5 μM of SR3677. A negative control group was prepared in the same manner, except that 0.05 (v/v) % of DMSO was used.
FIG. 13 illustrates microscopic images of cells cultured in the presence of 5 μM of Y-27632, 5 μM of FASUDIL, and 0.5 μM of SR3677. In “a” of FIG. 13, a portion was selected and marked by a rectangle with a dashed line, and the selected portion was enlarged in a1 for closer examination of the cultured cells. In a1 of FIG. 13, a portion was selected, marked by a rectangle with a dashed line, enlarged in a2 for much closer examination of the cultured cells (Scale bar 20 μm).

The subject of assay [3] is senescent fibroblasts (after 37 cell passages). Put plainly: mitochondrial ROS (MitoSOX) by flow cytometry. Format: cell-based, human. The conditions noted are these: vs control, p<0.05, FIG. 10. The method, then: In addition, damage of mitochondria was identified by measuring reactive oxygen species (ROS) and mitochondrial membrane potentials which are well known in the art. ROS were measured using a 0.2 μM MitoSOX (Invitrogen, M3608) according to manufacturer's manuals. Light having a wavelength of 520 nm was irradiated to the cells using a FACSCaliber (Beckton Dickinson), and light emission was measured at 580 nm. The results were analyzed using a Cell Quest 3.2 software (Beckton Dickinson). […] In FIG. 10, * indicates statistically significant (p<0.05).
On the technique in general: Flow cytometry measures light scatter and fluorescence of single cells or particles in a stream.

The test system of assay [4] is senescent progeric fibroblasts (cell passage 17). Put plainly: DNA comet assay. It is filed as cell-based, human. The conditions noted are these: 4 weeks, vs DMSO, p<0.05, FIG. 21. Here is the method: The degrees of restoration of DNA damage in senescent progeric fibroblasts by the Rho-kinase inhibitors were identified by a DNA comet assay. This method is performed by detecting DNA fractions cleaved by ultraviolet (UV) irradiation. This method is based on gel electrophoresis. During gel electrophoresis, damaged DNA migrates farther than normal DNA forming a tail like a comet-tail. Then, a slide was stained with SYBR Green, and the length of a tail of a DNA fraction was measured using a fluorescence microscope to identify the degree of DNA damage.
FIG. 21 is a graph displaying degrees of DNA damage in progeric fibroblasts (cell passage 17) cultured in the presence of Rho-kinase inhibitors Y-27632 (5 μM), Fasudil (5 μM), and SR3677 (0.5 μM) measured by a DNA comet assay indicating the degree of DNA damage. In FIG. 21, senescent progeric cells (cell passage 17) were cultured in culture media supplemented with 5 μM of Y-27632, 5 μM of FASUDIL, and 0.5 μM of SR3677 for 4 weeks in a 5% CO2 incubator at 37° C. The culture media were changed at every 4 days with new culture media supplemented with 5 μM of Y-27632, 5 μM of FASUDIL, and 0.5 μM of SR3677. Cells having a cell doubling time of 6 to 7 days were used as young cells. A negative control group was prepared in the same manner, except that DMSO was used. […] Thus, it was confirmed that the degree of DNA damage increases in senescent cells. […] In FIG. 21, * indicates statistically significant (p<0.05).

Assay [5] deals with senescent myoblasts (11 cell passages). Kind of assay: mitochondrial ROS (MitoSOX) by flow cytometry. It is filed as cell-based, Human. The settings on record: vs control, p<0.05, FIG. 15. Here is the method:
as §1, §2
ROS were measured using a 0.2 μM MitoSOX (Invitrogen, M3608) according to manufacturer's manuals. Light having a wavelength of 520 nm was irradiated to the cells using a FACSCaliber (Beckton Dickinson), and light emission was measured at 580 nm. The results were analyzed using Cell Quest 3.2 software (Beckton Dickinson).

Molecules are shown by their SMILES.

On to `CN(C)CCOc1cc(-c2cn[nH]c2)ccc1NC(=O)C1COc2ccccc2O1` (stereo not drawn) [SR3677], for which the figures for the “DNA damage (Tail Moment)” value in assay [1] (0.5 μM) and in assay [4] (0.5 μM) were “considerably restored” and “considerably reduced”, respectively. In addition, the cell shape result in assay [2] (0.5 μM) was “spindle shape generally found in young cells”. Further, the numbers of cells result in assay [2] (0.5 μM) is listed as “greater than that of the control group”. The ROS result in assay [3] (0.5 μM) and in assay [5] (0.5 μM) was “significantly reduced” each time.

`C[C@@H](N)[C@H]1CC[C@H](C(=O)Nc2ccncc2)CC1` [Y-27632, (1R,4R)-4-((R)-1-aminoethyl)-N-(pyridin-4-yl)cyclohexanecarboxamide]: the “DNA damage (Tail Moment)” value in assay [1] (5 μM) is reported as “considerably restored”; in assay [4] (5 μM), “considerably reduced”. Also, the cell shape entry in assay [2] (5 μM) is “spindle shape generally found in young cells”. The numbers of cells entry in assay [2] (5 μM) is recorded as “greater than that of the control group”. In addition, the ROS entry in assay [3] (5 μM) and in assay [5] (5 μM) was “significantly reduced” throughout.

On to `O=S(=O)(c1cccc2cnccc12)N1CCCNCC1` [FASUDIL, 5-(1,4-diazepane-1-sulfonyl)isoquinoline], for which the “DNA damage (Tail Moment)” value in assay [1] (5 μM) is given as “considerably restored”; in assay [4] (5 μM) it was “considerably reduced”. In assay [2] (5 μM), the cell shape entry was “spindle shape generally found in young cells”. Besides, the numbers of cells entry in assay [2] (5 μM) is reported as “greater than that of the control group”. The ROS result in assay [3] (5 μM) and in assay [5] (5 μM) was “significantly reduced” throughout.

Values taken from patent publication US9943525B2, “Composition for reducing cell senescence comprising Rho-kinase inhibitor and use thereof” (Samsung Electronics Co., Ltd., priority 2014, dated 2018).
